What was measured:
Test in all cases: relative viability (nuclei count vs DMSO), 5 days (fraction); higher = more cells survive
[1] = compound: COC1=CC=C(C=C1)COC2=C(C=C(C=C2)CC3=CN=C(N=C3N)N)OC [GW-2580] + Nc1nc2[nH]cc(CCc3ccc(C(=O)N[C@@H](CCC(=O)O)C(=O)O)cc3)c2c(=O)[nH]1 [Pemetrexed] (partner 0.2 µM)
Outline: (§1)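 Relative viability was taken as the ratio of nuclei in treated wells to nuclei in vehicle wells. Lung cancer cell lines in 1536-well plates received compounds by pin tool one day after seeding, either one drug alone or a fixed anchor-drug dose plus five library-drug doses (not always all listed) in √10 steps. Nuclei were counted on 4× images after 5 days of treatment, and values are medians of duplicate plates.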

[2] = compound: COC1=CC=C(C=C1)COC2=C(C=C(C=C2)CC3=CN=C(N=C3N)N)OC [GW-2580] + CC(C)C[C@H](NC(=O)[C@H](Cc1ccccc1)NC(=O)c1cnccn1)B(O)O [Bortezomib] (partner 0.002 µM)
Outline: as §1

[3] = compound: COC1=CC=C(C=C1)COC2=C(C=C(C=C2)CC3=CN=C(N=C3N)N)OC [GW-2580]
Outline: (§2)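 Vehicle-anchored 1536-well plates of lung cancer cell lines, held overnight at 37 °C, were pinned with five library-drug doses (not always all listed) spaced by √10. No medium change followed over the next 5 days, after which the cells were fixed, permeabilised and Hoechst-stained together and imaged at 4×. Nuclei were counted with MetaXpress, and viability is treated-well nuclei over vehicle-well nuclei, taken as a median across plates. Plates passed with control CV below 25% and at least one doubling.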

[4] = compound: Cc1cnc(Nc2ccc(OCCN3CCCC3)cc2)nc1Nc1cccc(S(=O)(=O)NC(C)(C)C)c1 [Fedratinib]
Outline: as §2

Cell Line | relative viability ([1]; first compound 0.08 µM) | relative viability ([1]; first compound 0.8 µM) | relative viability ([1]; first compound 2.53 µM) | relative viability ([1]; first compound 8 µM) | relative viability ([2]; first compound 0.08 µM) | relative viability ([2]; first compound 0.8 µM) | relative viability ([2]; first compound 2.53 µM) | relative viability ([2]; first compound 8 µM) | relative viability ([3]; 0.08 µM) | relative viability ([3]; 0.8 µM) | relative viability ([3]; 2.53 µM) | relative viability ([3]; 8 µM) | relative viability ([4]; 0.1 µM) | relative viability ([4]; 0.3162 µM) | relative viability ([4]; 1 µM)
201T | 0.371 | 0.351 | 0.329 | 0.346 | 1.15 | 1.12 | 1.11 | 1.14 | 0.974 | 1.13 | 1.06 | 0.959 | 0.963 | 1 | 0.918
A549 | – | – | – | – | – | – | – | – | 1.01 | 1.12 | 0.944 | 0.932 | 0.998 | 0.937 | 0.958
A-427 | 0.936 | 1.19 | 0.842 | 0.76 | 1.14 | 1.13 | 0.915 | 0.878 | 1.05 | 1.11 | 0.86 | 0.881 | 0.928 | 1.02 | 0.555
ABC-1 | – | – | – | – | 0.295 | 0.324 | 0.287 | 0.306 | 0.956 | 1.14 | 0.869 | 0.883 | 0.827 | 0.954 | 0.816
BEN | 1.91 | 0.762 | 0.615 | 0.702 | 0.674 | 0.879 | 0.55 | 0.799 | 0.949 | 1.08 | 0.776 | 0.905 | 0.842 | 0.91 | 0.831
CAL-12T | 1.32 | 1.53 | 1.24 | 1.13 | 0.901 | 1.28 | 0.884 | 1.16 | 0.995 | 1.03 | 0.933 | 1.01 | 0.93 | 0.996 | 0.859
COR-L23 | 0.197 | 0.196 | 0.205 | 0.194 | 1.2 | 1.21 | 0.929 | 1.2 | 1.15 | 1.12 | 1.03 | 0.932 | 0.958 | 1.04 | 1.03
Calu-6 | – | – | – | – | 1.06 | 1.09 | 0.948 | 1.05 | 1.12 | 1.1 | 0.96 | 1.04 | 1.03 | 1.04 | 0.971
EBC-1 | – | – | – | – | 0.609 | 0.572 | 0.492 | 0.554 | 1.07 | 1.17 | 0.889 | 0.949 | 0.893 | 0.988 | 0.878
IA-LM | – | – | – | – | 0.967 | 0.574 | 0.912 | 0.865 | 0.849 | 1.1 | 0.913 | 0.936 | 1.01 | 0.87 | 0.931
LK-2 | 0.287 | 0.283 | 0.245 | 0.295 | – | – | – | – | 1.18 | 0.988 | 0.742 | 1.02 | 1.09 | 1.03 | 0.734
NCI-H358 | 0.171 | 0.186 | 0.166 | 0.178 | – | – | – | – | 0.965 | 1.03 | 0.874 | 0.789 | 0.999 | 0.911 | 0.884
NCI-H522 | 1.11 | 0.97 | 0.967 | 0.994 | – | – | – | – | 0.969 | 0.9 | 0.957 | 0.996 | 0.971 | 1.16 | 0.758
NCI-H727 | – | – | – | – | 1.01 | 1.18 | 1.35 | 0.835 | 1.14 | 1.03 | 0.971 | 0.823 | 1.03 | 0.928 | 0.813
NCI-H1299 | – | – | – | – | 1.02 | 0.949 | 1.07 | 0.941 | 1.08 | 1.03 | 1 | 0.937 | 1.01 | 1.03 | 1
NCI-H1395 | 0.9 | 0.986 | 0.863 | 0.88 | – | – | – | – | 0.866 | 0.979 | 0.877 | 0.935 | 0.784 | 0.955 | 0.7
NCI-H1623 | – | – | – | – | – | – | – | – | 0.947 | 0.998 | 0.828 | 0.96 | 1.04 | 0.987 | 0.935
NCI-H1648 | 0.778 | – | 0.609 | 0.611 | – | – | – | – | 0.82 | – | 0.929 | 0.888 | 0.889 | 0.901 | 0.694
NCI-H1703 | – | – | – | – | 0.307 | 0.351 | 0.532 | 0.335 | 0.855 | 0.991 | 1.02 | 0.919 | 0.518 | 0.794 | 0.686
NCI-H1793 | 0.982 | 1.08 | 0.649 | 0.844 | – | – | – | – | 0.95 | 1.05 | 0.711 | 0.852 | 0.884 | 0.886 | 0.619
NCI-H1944 | 0.621 | 0.638 | 0.556 | 0.512 | – | – | – | – | 1 | 0.999 | 0.972 | 0.886 | 0.965 | 1.01 | 0.909
NCI-H2170 | 0.26 | 0.261 | 0.264 | 0.251 | – | – | – | – | 1.02 | 1.02 | 0.948 | 0.972 | 1.05 | 1.01 | 0.9
NCI-H2342 | 0.705 | 0.828 | 0.682 | 0.733 | – | – | – | – | 0.921 | 1.05 | 0.775 | 0.97 | 1.08 | 1.06 | 0.994
SK-MES-1 | 1.01 | 1.04 | 0.878 | 0.824 | – | – | – | – | 1.1 | 1.08 | 0.96 | 0.984 | 0.977 | 1.02 | 0.911
SW 900 | 0.509 | 0.511 | 0.495 | 0.547 | – | – | – | – | 0.767 | 0.876 | 0.833 | 0.771 | 0.78 | 0.847 | 0.768
